“And” between values parts separate entries of the source, which are not always exact repeats. Equal entries are not always repeated.
Test system: 377384-186-R-J1-PDC complex spheroid viability
Assay: Anticancer human tumor 377384-186-R-J1-PDC patient-derived pancreatic carcinoma cell line growth inhibition [CLK]
Conditions: for viability, T/C: stronger effect = lower value
In short: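 Multi-cell-type spheroids combined patient-derived tumor cells with HUVEC endothelial cells and human mesenchymal stem cells. Paired agents were dosed in half-log steps down from about clinical Cmax, or from 10 microM where Cmax was unknown.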
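Further: spheroids exposed to agents for 7 days before reading.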
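Wherever viability, T/C is given: luminescence signal used as a stand-in for viable cells.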

COc1ccc([C@@H](O)c2cc(-c3ncnc4cc(N5CCOCC5)ccc34)c(F)cc2Cl)nn1 + CN1CCN(c2cc(C(=O)Nc3cc4cc(-c5cnn(C)c5)ccc4cn3)ccn2)CC1
IC50 (curve of first compound, second compound 0.0316 µM): 6040 nM | IC50 (curve of first compound, second compound 0.1 µM): 4230 nM | IC50 (curve of first compound, second compound 0.316 µM): < 31.6 nM | IC50 (curve of first compound, second compound 1 µM): < 31.6 nM | IC50 (curve of first compound, second compound 3.16 µM): < 31.6 nM | IC50 (curve of first compound, second compound 10 µM): < 31.6 nM | viability, T/C (second compound 0.0316 µM, first compound 0.0316 µM): 119% | viability, T/C (second compound 0.0316 µM, first compound 0.1 µM): 111% | viability, T/C (second compound 0.0316 µM, first compound 0.316 µM): 88.8% | viability, T/C (second compound 0.0316 µM, first compound 1 µM): 78.2% | viability, T/C (second compound 0.0316 µM, first compound 3.16 µM): 59.3% | viability, T/C (second compound 0.0316 µM, first compound 10 µM): 42.5% | viability, T/C (second compound 0.1 µM, first compound 0.0316 µM): 114% | viability, T/C (second compound 0.1 µM, first compound 0.1 µM): 99.9% | viability, T/C (second compound 0.1 µM, first compound 0.316 µM): 73.7% | viability, T/C (second compound 0.1 µM, first compound 1 µM): 70.6% | viability, T/C (second compound 0.1 µM, first compound 3.16 µM): 57.6% | viability, T/C (second compound 0.1 µM, first compound 10 µM): 37.2% | viability, T/C (second compound 0.316 µM, first compound 0.0316 µM): 18.3% | viability, T/C (second compound 0.316 µM, first compound 0.1 µM): 22.8% | viability, T/C (second compound 0.316 µM, first compound 0.316 µM): 16.8% | viability, T/C (second compound 0.316 µM, first compound 1 µM): 18.1% | viability, T/C (second compound 0.316 µM, first compound 3.16 µM): 18.5% | viability, T/C (second compound 0.316 µM, first compound 10 µM): 16% | viability, T/C (second compound 1 µM, first compound 0.0316 µM): 0.76% | viability, T/C (second compound 1 µM, first compound 0.1 µM): 0.63% | viability, T/C (second compound 1 µM, first compound 0.316 µM): 0.7% | viability, T/C (second compound 1 µM, first compound 1 µM): 1.13% | viability, T/C (second compound 1 µM, first compound 3.16 µM): 1.12% | viability, T/C (second compound 1 µM, first compound 10 µM): 1.02% | viability, T/C (second compound 3.16 µM, first compound 0.0316 µM): 0.38% | viability, T/C (second compound 3.16 µM, first compound 0.1 µM): 0.32% | viability, T/C (second compound 3.16 µM, first compound 0.316 µM): 1.16% | viability, T/C (second compound 3.16 µM, first compound 1 µM): 0.36% | viability, T/C (second compound 3.16 µM, first compound 3.16 µM): 0.35% | viability, T/C (second compound 3.16 µM, first compound 10 µM): 0.98% | viability, T/C (second compound 10 µM, first compound 0.0316 µM): 0.49% | viability, T/C (second compound 10 µM, first compound 0.1 µM): 0.35% | viability, T/C (second compound 10 µM, first compound 0.316 µM): 0.33% | viability, T/C (second compound 10 µM, first compound 1 µM): 0.39% | viability, T/C (second compound 10 µM, first compound 3.16 µM): 1.26% | viability, T/C (second compound 10 µM, first compound 10 µM): 0.36%

C=C(F)C(=O)N1CCN(c2nc(OCC3CCCN3C)nc3c2CCN(c2cccc4cccc(Cl)c24)C3)CC1CC#N (stereo unspecified)
viability, T/C (compound 0.0316 µM): 88.4% and 94.1% | viability, T/C (compound 0.1 µM): 97.7% and 89.9% | viability, T/C (compound 0.316 µM): 86.1% and 91.8% | viability, T/C (compound 1 µM): 73.6% and 70.8% | viability, T/C (compound 3.16 µM): 21.3% and 26.5% | viability, T/C (compound 10 µM): 0.31% and 0.54% | IC50 (curve of compound): 1670 nM and 1730 nM

COc1c(OCCCN2CCOCC2)ccc2c3n(c(=NC(=O)c4cnc(N)nc4)nc12)CCN3
viability, T/C (compound 0.00316 µM): 89.6% and 77.6% | viability, T/C (compound 0.01 µM): 72.4% and 61.6% | viability, T/C (compound 0.0316 µM): 50% and 52.3% | viability, T/C (compound 0.1 µM): 34.4% and 30.3% | viability, T/C (compound 0.316 µM): 22.4% and 22.7% | viability, T/C (compound 1 µM): 14.3% and 13.8% | IC50 (curve of compound): 34.4 nM and 28.3 nM

Source: PubChem BioAssay AID2060616 (Molecular Pharmacology Branch, DTP, NCI, 2025)
